Data from US20060128726A1, “Process for preparing novel crystalline forms of (2S)-1-[[(7R)-7-(3,4-dichlorophenyl)-4,7-dihydro-5-methylpyrazolo[1,5]pyrimidine-6-yl]carbonyl]-2-(4-fluorophenyl)pyrrolidine, novel stable forms produced therein and formulations” (priority 2004, published 2006).
≈ marks a conversion by molar mass, not a printed value.

Tests used:
[1] = slurry conversion of polymorph mixtures (relative thermodynamic stability); type: physicochemical; conditions: mixtures of H2-1 and H2-2 in aqueous ethanol slurries; conversion observed at 5, 25, 50 and 80° C.
aqueous solubility = type: physicochemical; conditions: water; depending on crystalline form
[2] = solid-state stability (light, heat, physical and chemical); type: physicochemical
[3] = target: ultrarapidly activating, sustained potassium current (IKur, also known as Kv1.5) (Homo sapiens, UniProt P22460); conditions: cited from earlier work
Sequence of ultrarapidly activating, sustained potassium current (IKur, also known as Kv1.5) (P22460 whole entry): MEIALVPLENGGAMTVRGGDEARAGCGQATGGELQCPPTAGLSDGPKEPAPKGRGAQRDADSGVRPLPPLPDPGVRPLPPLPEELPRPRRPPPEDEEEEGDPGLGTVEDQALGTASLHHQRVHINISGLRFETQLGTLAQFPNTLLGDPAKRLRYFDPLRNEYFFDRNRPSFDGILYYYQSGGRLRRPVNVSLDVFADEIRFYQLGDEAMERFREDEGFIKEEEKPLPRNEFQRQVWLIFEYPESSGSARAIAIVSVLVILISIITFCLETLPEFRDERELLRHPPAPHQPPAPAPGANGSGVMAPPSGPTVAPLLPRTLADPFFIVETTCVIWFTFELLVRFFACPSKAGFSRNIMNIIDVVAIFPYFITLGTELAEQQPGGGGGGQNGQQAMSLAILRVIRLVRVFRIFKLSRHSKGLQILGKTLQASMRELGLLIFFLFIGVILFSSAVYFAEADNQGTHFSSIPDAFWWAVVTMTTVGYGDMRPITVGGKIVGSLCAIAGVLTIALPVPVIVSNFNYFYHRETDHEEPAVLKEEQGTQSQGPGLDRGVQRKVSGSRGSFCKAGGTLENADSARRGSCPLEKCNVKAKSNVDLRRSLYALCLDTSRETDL

hygroscopicity = type: physicochemical
oral bioavailability = conditions: in vivo

SMILES: CC1=C(C(=O)N2CCC[C@H]2c2ccc(F)cc2)[C@@H](c2ccc(Cl)c(Cl)c2)n2nccc2N1 [H2-2 dihydrate]
- relative thermodynamic stability of polymorphs [1]: thermodynamically more stable than the H2-1 dihydrate

SMILES: CC1=C(C(=O)N2CCC[C@H]2c2ccc(F)cc2)[C@@H](c2ccc(Cl)c(Cl)c2)n2nccc2N1 [IKur compound, (2S)-1-[[(7R)-(3,4-dichlorophenyl)-4,7-dihydro-5-methylpyrazolo[1,5-]pyrimidine-6-yl]carbonyl]-2-(4-fluorophenyl)pyrrolidine]
- solubility (aqueous solubility): 2 to 4 µg/mL (≈ 4.24 to 8.49 µM)
- sensitivity to light and heat ([2]; amorphous form and crystalline forms): sensitive to light and heat
- blocking of IKur (Kv1.5) [3]: selective blocker

SMILES: CC1=C(C(=O)N2CCC[C@H]2c2ccc(F)cc2)[C@@H](c2ccc(Cl)c(Cl)c2)n2nccc2N1 [N-3 anhydrate]
- solid-state stability (physical and chemical) [2]: satisfactory solid-state stability
- hygroscopicity (hygroscopicity): low hygroscopicity
- oral bioavailability (oral bioavailability): satisfactory oral bioavailability
